Laboratory results from the METLIN SMRT retention time set (Domingo-Almenara et al. 2019).

Assay: gradient 5% acetonitrile 3 min, to 50% in 2 min, to 85% in 15 min, held 3 min, 100 µL/min
Conditions: column: Zorbax Extend-C18 2.1 x 50 mm; eluents: water / acetonitrile, 0.1% formic acid
Summary of the method: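 Each retention time is based on an adduct peak selected computationally and verified by manual inspection. Measurements used HPLC–quadrupole time-of-flight mass spectrometry in positive and negative ionization mode on mixtures of ~100 pure standards. Chromatography ran on a Zorbax Extend-C18 column (2.1 × 50 mm, 1.8 μm) at 100 μL/min with water and acetonitrile, each containing 0.1% formic acid, and dead and dwell volumes of 40 μL and 900 μL.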

Row | Compound | RP-LC retention time
1 | CNC(=O)C1CCCN(c2nc3ncn(CC(=O)Nc4cc(F)ccc4C)c(=O)c3s2)C1 (configuration not stated) | 644 s
2 | COc1cc(OC)c(NC(=O)N(C)Cc2nc3cc(C(=O)N(C)C)ccc3n2C)cc1Cl | 619 s
3 | CCN1C(=O)C2(CCN(S(=O)(=O)c3cccc(C)c3)CC2)c2ccccc21 | 1070 s
4 | CCN1CCN(c2ncc3c(n2)CC(c2cc(OC)c(OC)c(OC)c2)CC3=O)CC1 (configuration not stated) | 564 s
5 | COc1ccc2[nH]c(=O)c(CCC(=O)NCc3cccs3)cc2c1 | 805 s
6 | O=C(c1cn[nH]c1)N1CCCC1Cc1noc(C2CCCC2)n1 (configuration not stated) | 692 s
7 | CCCCOc1ccc(-c2nc(C3CC(=O)N(c4ccc(OC)cc4)C3)no2)cc1 (configuration not stated) | 1200 s
8 | COc1ccc(-c2nc(Cn3ccn4nc(-c5ccc(OC)c(OC)c5)cc4c3=O)c(C)o2)cc1 | 968 s
9 | CCCCNC(=O)C(C)n1nc(C)c2c(C)n(-c3ccccc3)nc2c1=O (configuration not stated) | 787 s
10 | COC(=O)c1ccccc1NC(=O)CCCn1cnc(-c2ccccc2)cc1=O | 811 s
11 | COC(=O)CNC(=O)c1cc2c(=O)n(C)c3ccccc3n2n1 | 676 s
12 | CCOc1ccc(N2CC(CNS(=O)(=O)c3ccccc3C(F)(F)F)CC2=O)cc1 (configuration not stated) | 824 s
13 | Cc1cc(CN2CCc3nn(Cc4ccccc4)c(=O)n3CC2)n(C)n1 | 611 s
14 | O=c1c2ccccc2n(Cc2nc(-c3ccc(Cl)cc3)no2)c(=O)n1CC1CCCO1 (configuration not stated) | 1080 s
15 | CCOc1ccc(-c2nc3ncccn3c2NC2CCCCC2)cc1 | 808 s
16 | Cc1ccn2c(Nc3ccccc3C)c(-c3cccc(Cl)c3)nc2c1 | 890 s
17 | Cc1oc(C2CCN(C(=O)Cc3ccccc3Cl)CC2)nc1C(=O)N1CCCC1 | 820 s
18 | CCc1ccc(S(=O)(=O)N2CCC(c3noc(-c4cccc(OC)c4)n3)CC2)cc1 | 1240 s
19 | COc1ccc(-c2nc(C)cc(C)c2CNC(=O)C2CCCC2)cc1 | 638 s

Row | Compound | RP-LC retention time
20 | Cc1cc(C)c2c(N3CCCC3)nc(C(=O)NC(C)c3ccccn3)nc2n1 (configuration not stated) | 586 s
21 | COc1ccc(S(=O)(=O)N2CCCC(C(=O)NC3CCCC3)C2)cc1C (configuration not stated) | 901 s
22 | Cc1ccc(-c2nc3ccccc3[nH]2)cc1NC(=O)CC(C)C | 656 s
23 | CCc1nc2cc(-c3noc(-c4cccc(OC)c4OC)n3)ccc2o1 | 1130 s
24 | CCN1c2cc(F)ccc2C(=O)NC12CCN(C(=O)c1cccc(OC)c1)CC2 | 756 s
25 | CCc1ccc(-n2nc(CO)c(C(=O)NCc3ccc4c(c3)OCO4)n2)cc1 | 1030 s
26 | CCOc1ccc(CN(Cc2cc(=O)n3cc(Cl)ccc3n2)CC(C)C)cc1 | 734 s
27 | CC(C)S(=O)(=O)c1ccc(C(=O)N2CC(=O)Nc3ccccc32)cc1 | 653 s
28 | Cc1ccc(CNC(=O)C2(C)CN(S(C)(=O)=O)CC(=O)N2CCc2ccc(Cl)cc2)cc1 (configuration not stated) | 961 s
29 | CC(=O)NCc1nc2ccccc2n1CC(=O)Nc1ccccc1C | 617 s
30 | Clc1ccc(-c2ccc(CNCC3CCNCC3)o2)c(Cl)c1 | 611 s
31 | COc1ccc(-c2nc(C3CC(=O)N(c4ccc(F)cc4)C3)no2)c(OC)c1 (configuration not stated) | 898 s
32 | Cc1ccc2nc(NC(=O)CSc3nn4c(=O)c(C)nnc4s3)sc2c1 | 704 s
33 | CCOC(=O)C(C)NC(=O)N1CCN(Cc2nc3cccnc3n2-c2cc(C)cc(C)c2)CC1 (configuration not stated) | 658 s
34 | COc1ccc(OC)c(NC(=O)c2cc(S(=O)(=O)N3CCCC(C)C3)cn2C)c1 (configuration not stated) | 638 s
35 | Cc1ccccc1NC(=O)CN1C(=O)NC2(CCCCC2)C1=O | 730 s
36 | O=C(Nc1ccc2c(c1)OCO2)c1nnc(C(=O)N2CCCC(C(=O)NC3CCCC3)C2)s1 (configuration not stated) | 860 s
37 | Cc1ccc(N2CCN(C(=O)C(C)(C)C)CC2)nn1 | 531 s
